Experimental data published in US20030226169A1, “DNA sequences encoding antifungal proteins” (priority 1995, published 2003).
Positions of bridges follow the written chain, without caps; N, C: chain ends. Residues, ends and D or L forms follow the SMILES beside them.

Experiments:
[1] = system: Fusarium culmorum (IMI 180420); test: Antifungal growth inhibition microplate assay (photospectrometry); assay type: cell-based; conditions: for increase of MIC value: 15-mer peptides, 50 mM KCl versus ½ PDB alone
In short: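 Spores (2×10^4/ml) in half-strength potato dextrose broth exposed to test solution, incubated in the dark at room temperature for about 72 h (96 h for V. dahliae). Growth by OD595 minus 30-min reading; IC50 is 50% and MIC 100% growth inhibition.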

[2] = Solubility of peptide in water; assay type: physicochemical; conditions: dissolved at 2 mg/ml
Protocol: Peptides insoluble in water were dissolved in 50% acetonitrile: 50% acetonitrile was added to the peptide to give a stock solution which could be further diluted with water for fungal growth assays. Fungal growth was not affected by the presence of acetonitrile at the maximum concentration tested ([…] in the test well).
Split 15-mer peptides were dissolved in sterile milli-Q water to a final concentration of 5 mg/ml. MPS 15-mer peptides were dissolved to a final concentration between 4 and 10 mg/ml using acetonitrile as solvent for those peptides insoluble in water. Split 6-, 9- and 12-mer Rs-AFP 1 peptides were dissolved to a final concentration of 2 mg/ml in 20% acetonitrile. Split 6-, 9- and 12-mer Rs-AFP2 peptides were dissolved to a final concentration of 2 mg/ml in sterile water except for peptides numbers 1 (SEQ ID NO: 133) and 83 (SEQ ID NO: 35, amino acids 37-45) which were dissolved in 50% acetonitrile and numbers 3, 4, 5, 25, 47, 52, 64, 69, 70, 73, 74, 77, 85 and 93 which were dissolved in 20% acetonitrile. Both Rs-AFP1 and Rs-AFP2 peptides were freeze-dried just before weighing. […] The foregoing peptides have the following sequence identifications: […]

F culmorum = test: Antifungal activity of combinations of Rs-AFP and 15-mer peptides; assay type: cell-based, Fusarium culmorum; conditions: 100 x MIC of Rs-AFP2 / MIC of Rs-AFP2/peptide combination; 15-mer peptide added at 20 μg/ml; SMF medium; BSA-coated plates; Rs-AFP2 alone = 100
Protocol: The 15-mer peptides were tested for their ability to affect the antifungal activity of the Rs-AFP2 protein (SEQ ID NO: 35). Each peptide was added at a subinhibitory concentration (20 μg/ml ) to a twofold dilution series of Rs-AFP2 (SEQ ID NO: 35) ranging from 20 μg/ml down to 0.15 μg/ml. In the control series only water was added.
The target fungus was F culmorum and the growth medium was SMF. In order to exclude the effect of differential binding of the peptides to the microplate wells, the plates were coated with bovine serum albumin. […] The relative specific activity is defined as one hundred times the MIC of Rs-AFP2 divided by the MIC of the Rs-AFP2/peptide combination. Data are based on duplicate tests.

Row | Molecule | Relative Specific Antifungal Activity (F culmorum) | increase of MIC value [1] | also measured
1 | CC(=O)N[C@H]1CSSC[C@@H](C(N)=O)NC(=O)[C@H](CCCCN)NC(=O)[C@H](Cc2c[nH]cn2)NC(=O)[C@H](C)NC(=O)[C@@H]2CCCN2C(=O)[C@H](Cc2ccccc2)NC(=O)[C@H](C(C)C)NC(=O)[C@H](Cc2ccc(O)cc2)NC(=O)[C@H](CC(N)=O)NC1=O [Loop 1, CNYVFPAHKC] (Ac-CNYVFPAHKC-NH2; disulfide 1-10) |  |  | ANTIFUNGAL ACTIVITY, MIC ([1]; Table 8: Loop 1 and Rs-AFP2 15-mer peptides, 1/16 PDB): 2.5 µg/mL; ANTIFUNGAL ACTIVITY, IC50 ([1]; Table 9: Loop 1 and Rs-AFP2 15-mer peptides, 1/16 PDB): 4 µg/mL; solubility in water [2]: completely soluble in water
2 | CC(=O)NCC(=O)N[C@H](C(=O)N[C@@H](Cc1c[nH]c2ccccc12)C(=O)N[C@@H](CO)C(=O)NCC(=O)N[C@H](C(=O)N[C@@H](CS)C(=O)NCC(=O)N[C@@H](CC(N)=O)C(=O)N[C@@H](CC(N)=O)C(=O)N[C@@H](CC(N)=O)C(=O)N[C@@H](C)C(=O)N[C@@H](CS)C(=O)N[C@@H](CCCCN)C(=O)N[C@@H](CC(N)=O)C(N)=O)C(C)C)[C@@H](C)O [Peptide 3 (Rs-AFP2 15-mer)] (Ac-GTWSGVCGNNNACKN-NH2; N-terminus and C-terminus assumed) | 180 |  | 
3 | CC[C@H](C)[C@H](NC(=O)[C@H](CS)NC(=O)[C@H](CCC(N)=O)NC(=O)[C@H](CC(N)=O)NC(=O)[C@H](CCCCN)NC(=O)[C@H](CS)NC(=O)[C@H](C)NC(=O)[C@H](CC(N)=O)NC(=O)[C@H](CC(N)=O)NC(=O)[C@H](CC(N)=O)NC(=O)CNC(=O)[C@H](CS)NC(=O)[C@@H](NC(=O)CNC(C)=O)C(C)C)C(=O)N[C@@H](CCCNC(=N)N)C(N)=O [Peptide 4 (Rs-AFP2 15-mer)] (Ac-GVCGNNNACKNQCIR-NH2; N-terminus and C-terminus assumed) | 180 |  | 
4 | CC[C@H](C)[C@H](NC(=O)[C@H](CS)NC(=O)[C@H](CCC(N)=O)NC(=O)[C@H](CC(N)=O)NC(=O)[C@H](CCCCN)NC(=O)[C@H](CS)NC(=O)[C@H](C)NC(=O)[C@H](CC(N)=O)NC(=O)[C@H](CC(N)=O)NC(=O)[C@H](CC(N)=O)NC(C)=O)C(=O)N[C@@H](CCCNC(=N)N)C(=O)N[C@@H](CC(C)C)C(=O)N[C@@H](CCC(=O)O)C(=O)N[C@@H](CCCCN)C(=O)N[C@@H](C)C(N)=O [Peptide 5 (Rs-AFP2 15-mer)] (Ac-NNNACKNQCIRLEKA-NH2; N-terminus and C-terminus assumed) | 180 |  | 
5 | CC[C@H](C)[C@H](NC(=O)[C@H](CS)NC(=O)[C@H](CCC(N)=O)NC(=O)[C@H](CC(N)=O)NC(=O)[C@H](CCCCN)NC(=O)[C@H](CS)NC(C)=O)C(=O)N[C@@H](CCCNC(=N)N)C(=O)N[C@@H](CC(C)C)C(=O)N[C@@H](CCC(=O)O)C(=O)N[C@@H](CCCCN)C(=O)N[C@@H](C)C(=O)N[C@@H](CCCNC(=N)N)C(=O)N[C@@H](Cc1c[nH]cn1)C(=O)NCC(=O)N[C@@H](CO)C(N)=O [Peptide 6 (Rs-AFP2 15-mer), CKNQCIRLEKARHGS] (Ac-CKNQCIRLEKARHGS-NH2; N-terminus and C-terminus assumed) | 300 | twofold | 
6 | CC[C@H](C)[C@H](NC(=O)[C@H](CS)NC(C)=O)C(=O)N[C@@H](CCCNC(=N)N)C(=O)N[C@@H](CC(C)C)C(=O)N[C@@H](CCC(=O)O)C(=O)N[C@@H](CCCCN)C(=O)N[C@@H](C)C(=O)N[C@@H](CCCNC(=N)N)C(=O)N[C@@H](Cc1c[nH]cn1)C(=O)NCC(=O)N[C@@H](CO)C(=O)N[C@@H](CS)C(=O)N[C@@H](CC(N)=O)C(=O)N[C@@H](Cc1ccc(O)cc1)C(=O)N[C@H](C(N)=O)C(C)C [Peptide 7 (Rs-AFP2 15-mer), CIRLEKARHGSCNYV] (Ac-CIRLEKARHGSCNYV-NH2; N-terminus and C-terminus assumed) | 350 | twofold | 
7 | CC(=O)N[C@@H](CCC(=O)O)C(=O)N[C@@H](CCCCN)C(=O)N[C@@H](C)C(=O)N[C@@H](CCCNC(=N)N)C(=O)N[C@@H](Cc1c[nH]cn1)C(=O)NCC(=O)N[C@@H](CO)C(=O)N[C@@H](CS)C(=O)N[C@@H](CC(N)=O)C(=O)N[C@@H](Cc1ccc(O)cc1)C(=O)N[C@H](C(=O)N[C@@H](Cc1ccccc1)C(=O)N1CCC[C@H]1C(=O)N[C@@H](C)C(=O)N[C@@H](Cc1c[nH]cn1)C(N)=O)C(C)C [Peptide 8 (Rs-AFP2 15-mer)] | 470 | about 16 fold | 
8 | CC[C@H](C)[C@H](NC(=O)[C@H](CS)NC(=O)[C@H](CCCCN)NC(=O)[C@H](Cc1c[nH]cn1)NC(=O)[C@H](C)NC(=O)[C@@H]1CCCN1C(=O)[C@H](Cc1ccccc1)NC(=O)[C@@H](NC(=O)[C@H](Cc1ccc(O)cc1)NC(=O)[C@H](CC(N)=O)NC(=O)[C@H](CS)NC(=O)[C@H](CO)NC(=O)CNC(=O)[C@H](Cc1c[nH]cn1)NC(C)=O)C(C)C)C(=O)N[C@@H](CS)C(N)=O [Peptide 9 (Rs-AFP2 15-mer), HGSCNYVFPAHKCIC] (Ac-HGSCNYVFPAHKCIC-NH2; N-terminus and C-terminus assumed) | 450 | ~8 fold | 
9 | CC[C@H](C)[C@H](NC(=O)[C@H](CS)NC(=O)[C@H](CCCCN)NC(=O)[C@H](Cc1c[nH]cn1)NC(=O)[C@H](C)NC(=O)[C@@H]1CCCN1C(=O)[C@H](Cc1ccccc1)NC(=O)[C@@H](NC(=O)[C@H](Cc1ccc(O)cc1)NC(=O)[C@H](CC(N)=O)NC(C)=O)C(C)C)C(=O)N[C@@H](CS)C(=O)N[C@@H](Cc1ccc(O)cc1)C(=O)N[C@@H](Cc1ccccc1)C(=O)N1CCC[C@H]1C(=O)N[C@@H](CS)C(N)=O [Peptide 10 (Rs-AFP2 15-mer)] (Ac-NYVFPAHKCICYFPC-NH2; N-terminus and C-terminus assumed) | 250 |  | 
10 | Ac-QRPSGTWSGVCGNNN-NH2 (N-terminus and C-terminus assumed) [Peptide 2 (Rs-AFP2 15-mer)] | 120 |  | 
